Assay results: US9212182B2, “Bicyclic sulfonamide compounds as sodium channel inhibitors” (AMGEN INC., priority 2013, dated 2015)

target: Nav 1.7 (Homo sapiens (Human), UniProt Q15858); assay: in-vitro Nav 1.7 PX (IC50); type: cell-based; details: not given
Sequence (Q15858 whole entry): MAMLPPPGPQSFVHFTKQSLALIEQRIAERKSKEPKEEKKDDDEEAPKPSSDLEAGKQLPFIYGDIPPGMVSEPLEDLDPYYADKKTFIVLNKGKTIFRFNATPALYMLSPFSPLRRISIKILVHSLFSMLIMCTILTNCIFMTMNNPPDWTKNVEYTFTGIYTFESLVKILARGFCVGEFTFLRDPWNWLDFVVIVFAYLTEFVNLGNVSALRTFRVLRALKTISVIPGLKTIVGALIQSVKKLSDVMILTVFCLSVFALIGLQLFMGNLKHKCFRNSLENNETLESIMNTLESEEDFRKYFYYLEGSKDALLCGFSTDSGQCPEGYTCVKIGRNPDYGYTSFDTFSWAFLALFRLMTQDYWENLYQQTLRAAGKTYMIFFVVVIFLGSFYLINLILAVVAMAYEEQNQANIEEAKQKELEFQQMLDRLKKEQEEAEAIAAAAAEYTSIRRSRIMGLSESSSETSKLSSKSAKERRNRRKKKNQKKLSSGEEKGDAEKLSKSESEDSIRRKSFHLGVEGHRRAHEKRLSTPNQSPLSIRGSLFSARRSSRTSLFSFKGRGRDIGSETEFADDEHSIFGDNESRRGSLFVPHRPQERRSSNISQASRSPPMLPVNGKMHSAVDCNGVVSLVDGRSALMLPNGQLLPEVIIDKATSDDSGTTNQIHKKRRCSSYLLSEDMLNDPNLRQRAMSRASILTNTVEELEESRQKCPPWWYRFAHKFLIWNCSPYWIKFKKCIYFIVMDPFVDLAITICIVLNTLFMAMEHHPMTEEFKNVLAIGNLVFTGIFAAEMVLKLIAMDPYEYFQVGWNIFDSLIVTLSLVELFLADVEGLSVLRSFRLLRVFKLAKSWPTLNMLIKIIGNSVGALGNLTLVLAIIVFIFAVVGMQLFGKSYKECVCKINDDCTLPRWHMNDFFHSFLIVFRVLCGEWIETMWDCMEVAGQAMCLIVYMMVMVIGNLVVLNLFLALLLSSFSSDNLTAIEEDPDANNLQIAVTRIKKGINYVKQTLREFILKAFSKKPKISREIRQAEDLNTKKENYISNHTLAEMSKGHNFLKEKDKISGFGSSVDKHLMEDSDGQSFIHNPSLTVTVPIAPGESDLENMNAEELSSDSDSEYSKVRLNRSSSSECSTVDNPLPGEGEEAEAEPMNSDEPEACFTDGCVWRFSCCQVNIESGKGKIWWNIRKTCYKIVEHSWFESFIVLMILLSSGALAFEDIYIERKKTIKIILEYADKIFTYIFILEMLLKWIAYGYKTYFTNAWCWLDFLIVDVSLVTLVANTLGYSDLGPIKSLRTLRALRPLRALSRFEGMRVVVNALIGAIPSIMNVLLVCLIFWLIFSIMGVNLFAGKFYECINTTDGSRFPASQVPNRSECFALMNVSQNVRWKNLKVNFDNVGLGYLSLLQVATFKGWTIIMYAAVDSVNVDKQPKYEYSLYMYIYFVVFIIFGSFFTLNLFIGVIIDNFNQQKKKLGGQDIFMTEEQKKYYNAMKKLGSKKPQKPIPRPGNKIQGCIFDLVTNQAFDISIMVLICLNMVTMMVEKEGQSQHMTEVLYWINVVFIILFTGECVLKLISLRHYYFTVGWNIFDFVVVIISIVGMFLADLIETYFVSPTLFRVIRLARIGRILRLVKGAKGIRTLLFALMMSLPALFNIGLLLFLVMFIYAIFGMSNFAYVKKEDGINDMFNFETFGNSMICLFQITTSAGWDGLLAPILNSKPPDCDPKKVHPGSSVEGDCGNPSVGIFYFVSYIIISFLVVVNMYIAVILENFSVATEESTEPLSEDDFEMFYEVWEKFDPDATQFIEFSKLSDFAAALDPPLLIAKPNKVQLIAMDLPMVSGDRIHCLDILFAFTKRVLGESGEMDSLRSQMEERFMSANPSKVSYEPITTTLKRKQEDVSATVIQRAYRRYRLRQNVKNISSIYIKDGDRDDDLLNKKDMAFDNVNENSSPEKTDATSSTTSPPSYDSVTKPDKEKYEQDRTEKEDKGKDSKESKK

| Compound | IC50 [nM] |
| --- | --- |
| COc1nc(OCc2ccc(F)cc2F)c(Cl)cc1-n1c(=O)ccc2cc(S(=O)(=O)Nc3ccon3)ccc21 [Example 1213, 1-(5-chloro-6-((2,4-difluorobenzyl)oxy)-2-methoxy-3-pyridinyl)-N-3-isoxazolyl-2-oxo-1,2-dihydro-6-quinolinesulfonamide] | 172 |
| COc1cc(-c2cccc(Cl)c2)c(Cl)cc1-n1c(=O)ccc2cc(S(=O)(=O)Nc3ccon3)ccc21 (atropisomer, axis not shown; (P)) [Example 459, (P)-1-(2,3′-dichloro-5-methoxy-[1,1′-biphenyl]-4-yl)-N-(isoxazol-3-yl)-2-oxo-1,2-dihydroquinoline-6-sulfonamide] | 12 |
| COc1cc(-c2ccc(Cl)c(C)c2)ccc1-n1c(=O)ccc2cc(S(=O)(=O)Nc3ccon3)ccc21 (atropisomer, axis not shown; (M)) [Example 431, (M)-1-(4′-chloro-3-methoxy-3′-methyl-4-biphenylyl)-N-3-isoxazolyl-2-oxo-1,2-dihydro-6-quinolinesulfonamide] | 5050 |
| COc1nc(Oc2cc(F)ccc2F)c(Cl)cc1-n1c(=O)ccc2cc(S(=O)(=O)Nc3ccon3)ccc21 [Example 1225, 1-(5-chloro-6-(2,5-difluorophenoxy)-2-methoxy-3-pyridinyl)-N-3-isoxazolyl-2-oxo-1,2-dihydro-6-quinolinesulfonamide] | 846 |
| CCCOc1cc(NS(=O)(=O)c2ccc3c(ccc(=O)n3-c3cc(F)c(Br)cc3OC)c2)ncn1 (atropisomer, axis not shown; (P)) [Example 1186, (P)-1-(4-bromo-5-fluoro-2-methoxyphenyl)-2-oxo-N-(6-propoxy-4-pyrimidinyl)-1,2-dihydro-6-quinolinesulfonamide] | 246 |
| O=c1ccc2cc(S(=O)(=O)Nc3ccon3)ccc2n1-c1ccc(-c2cccc(F)c2)cc1CC(O)CO (racemic) [Example 327, 1-(3-((2R)-2,3-dihydroxypropyl)-3′-fluoro-4-biphenylyl)-N-3-isoxazolyl-2-oxo-1,2-dihydro-6-quinolinesulfonamide, 1-(3-((2S)-2,3-dihydroxypropyl)-3′-fluoro-4-biphenylyl)-N-3-isoxazolyl-2-oxo-1,2-dihydro-6-quinolinesulfonamide] | 5570 |
| COc1nc(Oc2ccc(F)cc2)c(Cl)cc1-n1c(=O)ccc2cc(S(=O)(=O)Nc3ccon3)ccc21 [Example 1220, 1-(5-chloro-6-(4-fluorophenoxy)-2-methoxy-3-pyridinyl)-N-3-isoxazolyl-2-oxo-1,2-dihydro-6-quinolinesulfonamide] | 3100 |
| COc1ccccc1-n1c(=O)ccc2cc(S(=O)(=O)Nc3ccon3)ccc21 [Example 1154, N-(isoxazol-3-yl)-1-(2-methoxyphenyl)-2-oxo-1,2-dihydroquinoline-6-sulfonamide] | 10100 |
| COc1cc(C[C@@H]2CCOC2)c(F)cc1-n1c(=O)ccc2cc(S(=O)(=O)Nc3ccon3)ccc21 (atropisomer, axis not shown; (P)) [Example 1235, (P)-1-(5-fluoro-2-methoxy-4-((3R)-tetrahydro-3-furanylmethyl)phenyl)-N-3-isoxazolyl-2-oxo-1,2-dihydro-6-quinolinesulfonamide] | 2130 |

same assay, conditions: in-vitro Nav 1.7 PX data

| Compound | IC50 [nM] |
| --- | --- |
| COc1nc(-c2cc(F)cc(F)c2)c(Cl)cc1-n1c(=O)ccc2cc(S(=O)(=O)Nc3ncccn3)ccc21 [Example 1081, 1-(5-chloro-6-(3,5-difluorophenyl)-2-methoxy-3-pyridinyl)-2-oxo-N-2-pyrimidinyl-1,2-dihydro-6-quinolinesulfonamide] | 4150 |
| COc1cc(Cl)c(-c2cc(F)cc(Cl)c2)cc1-n1c(=O)ccc2cc(S(=O)(=O)Nc3ccon3)ccc21 [Example 613, 1-(3′,6-dichloro-5′-fluoro-4-methoxy-3-biphenylyl)-N-3-isoxazolyl-2-oxo-1,2-dihydro-6-quinolinesulfonamide] | 18 |
| COc1cc(-c2ccc(F)c(F)c2)ccc1-n1c(=O)ccc2cc(S(=O)(=O)Nc3cc(C)ncn3)ccc21 [Example 899, 1-(3′,4′-difluoro-3-methoxy-4-biphenylyl)-N-(6-methyl-4-pyrimidinyl)-2-oxo-1,2-dihydro-6-quinolinesulfonamide] | 107 |
| COc1ccc(-c2cccc(Cl)c2)cc1-n1c(=O)ccc2cc(S(=O)(=O)Nc3ccon3)ccc21 [Example 841, 1-(3′-chloro-4-methoxy-3-biphenylyl)-N-3-isoxazolyl-2-oxo-1,2-dihydro-6-quinolinesulfonamide] | 27 |
| COc1cc(-c2ccc(Cl)cc2C)c(F)cc1-n1c(=O)ccc2cc(S(=O)(=O)Nc3ccon3)ccc21 [Example 742, 1-(4′-chloro-2-fluoro-5-methoxy-2′-methyl-4-biphenylyl)-N-3-isoxazolyl-2-oxo-1,2-dihydro-6-quinolinesulfonamide] | 7 |
| COc1ccc(C)cc1-c1cc(OC)c(-n2c(=O)ccc3cc(S(=O)(=O)Nc4ccon4)ccc32)cc1F [Example 714, 1-(2-fluoro-2′,5-dimethoxy-5′-methyl-4-biphenylyl)-N-3-isoxazolyl-2-oxo-1,2-dihydro-6-quinolinesulfonamide] | 48 |
| COc1cc(-c2cc(OC)c(-n3c(=O)ccc4cc(S(=O)(=O)Nc5cc(C)ncn5)ccc43)cc2F)ccc1F [Example 1009, 1-(2,4′-difluoro-3′,5-dimethoxy-4-biphenylyl)-N-(6-methyl-4-pyrimidinyl)-2-oxo-1,2-dihydro-6-quinolinesulfonamide] | 151 |
| CC(C#N)Oc1cc(-c2cc(F)cc(F)c2)c(F)cc1-n1c(=O)ccc2cc(S(=O)(=O)Nc3ccon3)ccc21 (stereo not drawn) [Example 681, 1-(5-(1-cyanoethoxy)-2,3′,5′-trifluoro-[1,1′-biphenyl]-4-yl)-N-(isoxazol-3-yl)-2-oxo-1,2-dihydroquinoline-6-sulfonamide] | 458 |
| COc1nc(OC2CCCC2)c(Cl)cc1-n1c(=O)ccc2cc(S(=O)(=O)Nc3ccon3)ccc21 [Example 825, 1-(5-chloro-6-(cyclopentyloxy)-2-methoxy-3-pyridinyl)-N-3-isoxazolyl-2-oxo-1,2-dihydro-6-quinolinesulfonamide] | 330 |
| COc1cc(-c2cccc(C)c2)ccc1-n1c(=O)ccc2cc(S(=O)(=O)Nc3ncc(F)cn3)ccc21 [Example 1119, N-(5-fluoro-2-pyrimidinyl)-1-(3-methoxy-3′-methyl-4-biphenylyl)-2-oxo-1,2-dihydro-6-quinolinesulfonamide] | 40 |
| COc1cc(F)cc(-c2ccc(OC)c(-n3c(=O)ccc4cc(S(=O)(=O)Nc5ccon5)ccc43)c2)c1 [Example 853, 1-(3′-fluoro-4,5′-dimethoxy-3-biphenylyl)-N-3-isoxazolyl-2-oxo-1,2-dihydro-6-quinolinesulfonamide] | 60 |
| COc1cc(-c2cc(C)ccc2Cl)ccc1-n1c(=O)ccc2cc(S(=O)(=O)Nc3ccon3)ccc21 [Example 1030, 1-(2′-chloro-3-methoxy-5′-methyl-4-biphenylyl)-N-3-isoxazolyl-2-oxo-1,2-dihydro-6-quinolinesulfonamide] | 12 |
| COc1cc(-c2ccc(Cl)c(C#N)c2)c(F)cc1-n1c(=O)ccc2cc(S(=O)(=O)Nc3ccnc(C)n3)ccc21 [Example 892, 1-(4′-chloro-3′-cyano-2-fluoro-5-methoxy-4-biphenylyl)-N-(2-methyl-4-pyrimidinyl)-2-oxo-1,2-dihydro-6-quinolinesulfonamide] | 51 |
| COc1ccc(Br)cc1-n1c(=O)ccc2cc(S(=O)(=O)Nc3ccon3)ccc21 [Example 851, 1-(5-bromo-2-methoxyphenyl)-N-3-isoxazolyl-2-oxo-1,2-dihydro-6-quinolinesulfonamide] | 371 |
| COc1cc(-c2ccc(C)c(Cl)c2)c(F)cc1-n1c(=O)ccc2cc(S(=O)(=O)Nc3ccon3)c(F)cc21 [Example 979, 1-(3′-chloro-2-fluoro-5-methoxy-4′-methyl-4-biphenylyl)-7-fluoro-N-3-isoxazolyl-2-oxo-1,2-dihydro-6-quinolinesulfonamide] | 21 |
| COc1cc(-c2cccc(OC(F)F)c2)ccc1-n1c(=O)ccc2cc(S(=O)(=O)Nc3ccon3)ccc21 [Example 786, 1-(3′-(difluoromethoxy)-3-methoxy-4-biphenylyl)-N-3-isoxazolyl-2-oxo-1,2-dihydro-6-quinolinesulfonamide] | 48 |

same assay, conditions: in-vitro Nav 1.7 PX data (PatchXpress)

| Compound | IC50 [nM] |
| --- | --- |
| COc1cc(-c2cc(F)c(F)cc2C)ccc1-n1c(=O)ccc2cc(S(=O)(=O)Nc3ccon3)ccc21 [Example 1064, 1-(4′,5′-difluoro-3-methoxy-2′-methyl-4-biphenylyl)-N-3-isoxazolyl-2-oxo-1,2-dihydro-6-quinolinesulfonamide] | 13 |
| O=c1ccc2cc(S(=O)(=O)Nc3cccnn3)ccc2n1-c1ccc(-c2cc(F)cc(F)c2)cc1C1CC1 [Example 1042, 1-(3-cyclopropyl-3′,5′-difluoro-4-biphenylyl)-2-oxo-N-3-pyridazinyl-1,2-dihydro-6-quinolinesulfonamide] | 195 |

same assay, conditions: in-vitro PatchXpress (PX)

| Compound | IC50 [nM] |
| --- | --- |
| COc1cc(-c2cc(C)cc(C#N)c2)c(F)cc1-n1c(=O)ccc2cc(S(=O)(=O)Nc3ccon3)ccc21 (atropisomer, axis not shown; (P)) [Example 526, (P)-1-(3′-cyano-2-fluoro-5-methoxy-5′-methyl-4-biphenylyl)-N-3-isoxazolyl-2-oxo-1,2-dihydro-6-quinolinesulfonamide] | 31 |
| COc1nc(N2CC(F)(F)C2)c(Cl)cc1-n1c(=O)ccc2cc(S(=O)(=O)Nc3ccon3)ccc21 [Example 342, 1-(5-chloro-6-(3,3-difluoroazetidin-1-yl)-2-methoxypyridin-3-yl)-N-(isoxazol-3-yl)-2-oxo-1,2-dihydroquinoline-6-sulfonamide] | 1640 |
| COc1cc(-c2ccc(C)c(C#N)c2)c(F)cc1-n1c(=O)ccc2cc(S(=O)(=O)Nc3ccon3)ccc21 (atropisomer, axis not shown; (P)) [Example 524, (P)-1-(3′-cyano-2-fluoro-5-methoxy-4′-methyl-4-biphenylyl)-N-3-isoxazolyl-2-oxo-1,2-dihydro-6-quinolinesulfonamide] | 25 |
